What was measured:
[1] = tested on: HCT-8 cells; experiment: LPA effect on apoptosis (Apo-One Caspase 3/7); assay type: cell-based, human
Procedure: (§1) The effect of LPA on cell proliferation (Cell TiterGlo assay, Promega) and induction of apoptosis (Apo-One Caspase 3/7 assay, Promega) was measured in the presence and absence of serum. Cell-titer Glo is an assay that quantitates ATP as a measurement of the number of viable cells in a culture. The assay utilizes a luciferase-based luminescent signal. The Apo-One assay utilizes a profluorescent caspase 3/7 consensus substrate to measure the activation of caspase in the sample. The experiments were conducted in serum-free media as it is known that serum contains high concentrations of LPA (of the order of 10-30 uM). Briefly, cells were plated in 96-well plates at a density of 20,000 cells/well. After 24 h the serum-containing media was removed from the cells and replaced with either serum-containing or serum-free media. After 24 h LPA, at concentrations from 1-100 μM was added to the cells. 24 h later the induction of apoptosis and the level of cellular proliferation was measured using the Cell titer-glo or Caspase 3/7 Apo-One assay kits commercially available from Promega.

[2] = tested on: paxillin in HCT-8 cells; experiment: Paxillin phosphorylation, activation state specific antibodies; assay type: cell-based, human; details: 10 uM
Procedure: (§2) FIGS. 25A-C. LPA (10 uM) activation of Shc (A), paxillin (B) and SHP-2(C) in HCT-8 cell lysates. Phospho-specific antibodies were used to detect the activated proteins.
(§3) Many of the growth and survival signaling pathways of cancer cells have been identified. […] The protein She is an adaptor protein and the protein phosphatase SHP-2 are known to link the activation of multiple growth factor receptors to their downstream signaling pathways in cancer cells (For review see Yart et al. (2003) Current Cancer Drug Targets 3:177-192). These proteins are involved in mitogenic signaling by linking growth stimuli to the Ras-mitogen-activated protein kinase cascade and the PI3K survival pathway. […] Additionally, paxillin is a scaffold molecule intricately involved in the regulation of focal adhesions in cancer cells. It is therefore involved in the regulation of cell spreading and motility and is controlled by a multitude of signaling moieties including growth factors, and their downstream signaling molecules. Paxillin recruits these signaling components into specific cell compartments known as focal adhesions (For review, see Schaller (2001) Oncogene 20:6459-72). […] By treating HCT-8 cells with LPA (10 uM), the effect of LPA on the phosphorylation of paxillin was measured using activation state specific antibodies ([…]).

[3] = tested on: HCT-8 cells; experiment: LPA effect on cell proliferation (Cell TiterGlo); assay type: cell-based, human
Procedure: as §1

[4] = tested on: ERK in HCT-8 cells; experiment: ERK phosphorylation by LPA; assay type: cell-based, human; details: 10 μM LPA, 3 mins
Procedure: (§4) FIG. 23: Ability of LPA to phosphorylate ERK in cell lines known to express OSGPR114. 10 μM LPA and 1 μM EGF were used for this experiment, and the cells were stimulated with ligand for 3 mins prior to lysing.
(§5) One of the principal proliferative signaling pathways is the activation of ERK. […] However, the ability of LPA acting at OSGPR114 to effect ERK is unknown. HCT-8 cells, which express OSGPR114 at high levels, provide one of the best models available. […] This evidence supporting the hypothesis that LPA, likely acting at least in part at OSGPR114, induces ERK activation, a signaling pathway that is known to stimulate cellular proliferation.

[5] = tested on: ERK in ASPC-1 cells; experiment: ERK phosphorylation by LPA; assay type: cell-based, human; details: 10 μM LPA, 3 mins
Procedure: as §4, §5

[6] = tested on: Akt in CHO cell line stably transfected with OSGPR114; experiment: Akt phosphorylation, phospho-specific Akt antibody; assay type: cell-based; details: 10 uM, 3 minutes
Procedure: FIG. 26. Effect of LPA (10 μM), EGF (1 μM) and DMSO on levels of phospho-Akt as a in a CHO-K1 cell line stably transfected with OSGPR114.
The protein Akt is a well characterized survival pathway for many cancer cells and is a pathway that can be induced by multiple cell growth factors (For review, see Marte and Downward (1997) Trends Biochem. Sci. 22:355-358). […] The cells used for this experiment were a CHO cell line stably transfected with OSGPR114. The cells were treated with vehicle, LPA (10 uM) or EGF (1 uM) for 3 minutes.

[7] = tested on: CHO cells; experiment: FLIPR intracellular calcium assay, CHO cells; assay type: cell-based, hamster
Procedure: (§6) For example, in one method employed herein, CHO and CHO-114 cells were seeded at a concentration of 50K cells/well in […] growth media in clear, flat-bottom 96-well black assay plates and incubated overnight at 37 C. The growth media is aspirated from the cells and a dye solution ([…]) added to each well. The dye solution consists of 2 mM probenecid, 2 mM HBSS, […] in a growth media minus antibiotics solution. The cells are loaded with the dye for 1 h at 37 C before aspiration and rinsing with wash buffer (20 mM HBSS+2 mM Probenecid). Compound plates are then prepared with 4× compound/control. 150 ul of wash buffer is added to each well. Once the FLIPR is fully calibrated, compound is added to the plate and the release of calcium measured using 0.4 exposure length and a laser set at 0.3W.

[8] = biological target: T1, OSGPR114 (Homo sapiens, UniProt Q9H1C0); experiment: FLIPR intracellular calcium assay, CHO-OSGPR114 cells; assay type: cell-based; details: FLIPR, read-out: EC50, intracellular calcium response
T1 construct: expressed in transfected cells; host or cells: engineered yeast (GPA1 replaced by G-alpha chimeras, STE3 deleted; Fus1p-LacZ reporters)
Procedure: as §6

[9] = tested on: Shc in HCT-8 cells; experiment: Shc activation, phospho-specific antibody; assay type: cell-based, human; details: 10 uM
Procedure: as §2, §3

[10] = serum free conditions, LPA 1-100 μM, 24 h

T1 sequence (Q9H1C0 whole entry): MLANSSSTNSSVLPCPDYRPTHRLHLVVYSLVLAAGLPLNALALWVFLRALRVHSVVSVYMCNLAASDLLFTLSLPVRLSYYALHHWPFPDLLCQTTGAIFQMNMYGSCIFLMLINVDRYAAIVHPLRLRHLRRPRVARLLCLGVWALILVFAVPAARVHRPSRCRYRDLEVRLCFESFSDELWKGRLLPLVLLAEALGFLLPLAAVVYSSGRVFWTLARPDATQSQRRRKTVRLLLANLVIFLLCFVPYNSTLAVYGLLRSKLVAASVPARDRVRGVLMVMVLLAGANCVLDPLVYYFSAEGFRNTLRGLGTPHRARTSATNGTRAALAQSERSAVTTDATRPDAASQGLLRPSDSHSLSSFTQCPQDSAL

- EC50 [8]: 59 nM
Substance: lysophosphatidic acid [LPA]
- apoptosis ([1]; presence of 10% FCS): no statistically significant effects
- apoptosis induced through serum starving [1, 10]: reversed apoptosis
- phosphorylated paxillin [2]: highly significant increase in phosphorylated paxillin
- cell growth / proliferation ([3]; presence of 10% FCS): no statistically significant effects
- cell growth / proliferation [3, 10]: induced growth of the cells in a concentration dependent manner
- ERK activation [4]: stimulate ERK
- ERK activation [5]: stimulate ERK
- phosphorylation of Akt [6]: stimulate phosphorylation of Akt
- change in intracellular calcium concentration [7]: no significant change
- phosphorylation of Shc [9]: induced the phosphorylation
